Here are results for three compounds from patent US6268380A, “Urea derivatives useful as platelet aggregation inhibitors” (G. D. Searle & Co., priority 1993, dated 2001).

Assay [1] concerns platelet aggregation in Dog PRP. The assay can be described thus: In-Vitro Platelet Aggregation in PRP (ADP induced). The format is cell-based. The conditions noted are these: Canis lupus familiaris, ADP 50 um final concentration. Here is the method:
Healthy male or female dogs were fasted for 8 hours prior to drawing blood; then 30 ml whole blood was collected using a butterfly needle and 30 cc plastic syringe with 3 ml of 0.129 M buffered sodium citrate (3.8%). The syringe was rotated carefully as blood was drawn to mix the citrate. Platelet-rich plasma (PRP) was prepared by centrifugation at 975×g for 3.17 minutes at room temperature allowing the centrifuge to coast to a stop without braking. The PRP was removed from the blood with a plastic pipette and placed in a plastic capped, 50 mL Corning conical sterile centrifuge tube which was held at room temperature. Platelet poor plasma (PPP) was prepared by centrifuging the remaining blood at 2000×g for 15 minutes at room temperature allowing the centrifuge to coast to a stop without braking. The PRP was adjusted with PPP to a count of 2-3×10^8 platelets per mL. 400 uL of the PRP preparation and 50 uL of the compounds solution to be tested or saline were preincubated for 1 minute at 37° C. in a […].). 50 uL of adenosine 5' diphosphate (ADP) (50 um final concentration) was added to the cuvettes and the aggregation was monitored for 1 minute. All compounds are tested in duplicate. Results are calculated as follows: Percent of control=[(maximal OD minus initial OD of compound) divided by (maximal OD minus initial OD of control saline)]×100. The % inhibition=100-(percent of control).
The compounds tested and their median inhibitory concentrations (IC50) are recorded in Table I. IC50 's (dosage at which 50% of platelet aggregation is inhibited) were calculated by linear regression of the dose response curve.

For assay [2], the system named is ex vivo collagen induced platelet aggregation. The assay can be described thus: Inhibition of ex vivo collagen induced aggregation (compound administered to dogs). On the set-up: species or system dog (Beagles); key: *: not active at the dose tested. The conditions noted are these: intragastric (IG) administration to dogs; collagen induced aggregation in PRP ex vivo; dose not given. On the procedure: The purpose of this assay is to determine the effects of antiplatelet compounds on ex vivo collagen induced platelet aggregation when administered either intravenously or orally to dogs.
Pretreatment (control) blood samples are drawn from either conscious or anesthetized dogs (Beagles) and centrifuged to prepare platelet rich plasma (PRP). Aggregatory response to collagen is measured in a aggregometer and used as Control. Compounds are administered, either intragasterically (either by capsule or stomach tube or intravenously). Blood samples are drawn at predetermined intervals after compound administration, PRP prepared and aggregation to collagen determined. Compound inhibition of aggregation is determined by comparing the aggregation response after compound administration to the pretreatment response.

pIC50: −log10 of the molar value.

The pIC50 is the negative decadic logarithm of the IC50, by convention in mol/L.

Compound `N=C(N)c1ccc(NC(=O)N2CCCC(C(=O)NC(CC(=O)O)c3cccnc3)C2)cc1` (stereo not drawn) [Example 2, β-[[N-3-[[[4-(aminoiminomethyl)phenyl]amino]carbonyl]piperidylcarbonyl]amino]-3-pyridinepropanoic acid] gave a pIC50 in assay [1] (1 min, 37° C., aggregation monitored 1 minute) of 6.07. Moreover, the “Ex Vivo Effect after IG Administration” value in assay [2] was “*”.

With `N=C(N)c1ccc(NC(=O)N2CCCC2C(=O)NC(CC(=O)O)c2cccnc2)cc1` (stereo not drawn) [Example 4, β-[[N-2-[[[4-(aminoiminomethyl)phenyl]amino]carbonyl]pyrrolidylcarbonyl]amino]-3-pyridinepropanoic acid], the inhibition at 10 µM in assay [1] (at 10^-5 M, read-out: Dog PRP % Inh.) turned out to be 30%.

As for `N=C(N)c1ccc(NC(=O)N2CCC(C(=O)NC(CC(=O)O)c3cccnc3)CC2)cc1` (stereo not drawn) [Example 6, β-[[N-[[[4-(aminoiminomethyl)phenyl]amino]carbonyl]4-piperidylcarbonyl]amino]-3-pyridinepropanoic acid], the inhibition at 1 µM in assay [1] (at 10^-6 M, read-out: Dog PRP % Inh.) turned out to be 19%.
